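Five concentrations, 48 hours, 96-well plates. The concentration for 50% growth inhibition is given as GI50. TGI: concentration producing complete growth inhibition.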
Legend:
Test in all cases: growth of human tumour cells (NCI), 48 h
[1] = tested on: A549 NSCLC
[2] = tested on: ACHN renal
[3] = tested on: EKVX NSCLC
[4] = tested on: HL-60(TB) leukemia
[5] = tested on: HOP-62 NSCLC
[6] = tested on: HT29 colon
[7] = tested on: NCI-H522 lung
[8] = tested on: SK-MEL-2 melanoma
[9] = tested on: SNB-19 CNS
[10] = tested on: T-47D breast

SMILES	GI50 [1] [µM]	TGI [1] [µM]	GI50 [2] [µM]	TGI [2] [µM]	GI50 [3] [µM]	TGI [3] [µM]	GI50 [4] [µM]	TGI [4] [µM]	GI50 [5] [µM]	TGI [5] [µM]	GI50 [6] [µM]	TGI [6] [µM]	GI50 [7] [µM]	TGI [7] [µM]	GI50 [8] [µM]	TGI [8] [µM]	GI50 [9] [µM]	TGI [9] [µM]	GI50 [10] [µM]	TGI [10] [µM]
COc1ccc2cc(C(=O)/C=C/c3ccc(N(C)C)cc3)ccc2c1	60.3	> 100	81.4	> 100	21	72.1	> 100	> 100	> 100	> 100	> 100	> 100	39.1	> 100	61.6	> 100	> 100	> 100	> 100	> 100
N#Cc1c(N2CCOCC2)nc(=S)[nH]c1-c1ccccc1	21.3	> 100	14.1	> 100	20.2	> 100	15.3	> 100	7.93	68.1	33.5	> 100	13.8	> 100	4.5	> 100	89.9	> 100	4.15	> 100
CCCc1cc(=O)n2c(C(=O)Nc3cccc(C(=O)OCC)c3)c(C(=O)Nc3ccc(F)cc3)sc2n1	4.32	24.1	4.01	109	> 140	> 140	> 140	> 140	3.54	28.8	87.9	> 140	65	> 140	6.83	27.6	25.5	132	13.5	> 140
O=C(O)C(C(=O)O)P(=S)(S)c1ccccc1 (stereo not given)	–	> 100	–	> 100	–	> 100	–	> 100	–	> 100	–	> 100	–	> 100	–	> 100	–	> 100	–	> 100
Cc1ccc(-c2cc3c4c(nc5ccccc53)C(=O)c3cccnc3-c4n2)cc1	4.02	16.2	22.5	80.6	23.4	59.1	1.35	> 100	15.7	37.5	8.75	22.8	5.55	21.9	15	38	13.2	60.9	22.7	99.4

From PubChem BioAssay (NCI)
